Test results taken from publication PMC9841593 (ACS Medicinal Chemistry Letters, 2022).

The molecules below were run against influenza PAN endonuclease (Influenza A virus, UniProt C3W5S0, DEL52-64/INS51G).
Type: biochemical, influenza A/California/04/2009(H1N1)

| SMILES | inhibition of PAN (in words) |
| --- | --- |
| NC(=O)c1[nH]c(Br)cc(=O)c1O [Compound 3] | little difference in activity when compared with compounds 1 or 2 |
| O=c1cc(Br)[nH]c(-c2nnn[nH]2)c1O [Compound 4] | activity comparable to that of the parent structure |
| CONC(=O)c1[nH]c(Br)cc(=O)c1O [Compound 5] | moderate inhibition |
| O=c1[nH]c(-c2[nH]c(Br)cc(=O)c2O)no1 [Compound 7] | most potent IC50 value of the evaluated compounds |
| Cc1nc(-c2[nH]c(Br)cc(=O)c2O)no1 [Compound 8] | good inhibition |
| N#Cc1[nH]c(Br)cc(=O)c1O [Compound 9] | relatively poor inhibition |
| O=c1cc(Br)[nH]c(C2=NCCN2)c1O [Compound 10] | markedly poorer inhibition than the parent MBI |
| O=c1cc(Br)[nH]c(C2=NCCO2)c1O [Compound 11] | markedly poorer inhibition than the parent MBI |
